The subject of series [1] is Escherichia coli. Briefly: Antibacterial activity against Escherichia coli ATCC 25922 assessed as prevention visible bacterial growth incubated for 18 hrs. In kind it is functional. Particulars: ATCC 25922, 18 h.
In series [2] the test system is Escherichia coli. Nature of the series: Antibacterial activity against Escherichia coli BW25113 assessed as prevention visible bacterial growth incubated for 18 hrs. In kind it is functional. Particulars: BW25113, 18 h.
Series [3] relates to Escherichia coli. Briefly: Antibacterial activity against Escherichia coli ATCC 25922 assessed as prevention visible bacterial growth incubated for 18 hrs in presence of 10% (v/v) human serum in full MH medium. In kind it is functional. The note with it: ATCC 25922, 18 h.
Series [4] in a line: Cytotoxicity in human MEC1 cells assessed as reduction in cell viability incubated for 20 hrs by MTT assay. The series is classed as cell-based. For orientation: Tetrazolium assays rely on reduction of a dye to a coloured formazan, in cell work by metabolically active cells.
The test system of series [5] is Escherichia coli. Briefly: Antibacterial activity against Escherichia coli BW25113 expressing delta sbmA mutation assessed as prevention visible bacterial growth incubated for 18 hrs. The note with it: BW25113, 18 h. The series is classed as functional.
Series [6] relates to Klebsiella pneumoniae. Nature of the series: Antibacterial activity against Klebsiella pneumoniae 700603 assessed as prevention visible bacterial growth incubated for 18 hrs. The series is classed as functional. The note with it: Klebsiella pneumoniae, 700603, 18 h.
In series [7] the test system is Acinetobacter baumannii. Nature of the series: Antibacterial activity against Acinetobacter baumannii ATCC 19606 assessed as prevention visible bacterial growth incubated for 18 hrs. The series is classed as functional. Particulars: ATCC 19606 = CIP 70.34 = JCM 6841, 18 h.
In series [8] the test system is Pseudomonas aeruginosa. Nature of the series: Antibacterial activity against Pseudomonas aeruginosa ATCC 27853 assessed as prevention visible bacterial growth incubated for 18 hrs. Particulars: ATCC 27853, 18 h. The series is classed as functional.
Series [9] relates to Staphylococcus aureus. Briefly: Antibacterial activity against Staphylococcus aureus ATCC 25923 assessed as prevention visible bacterial growth incubated for 18 hrs. In kind it is functional. Particulars: ATCC 25923, 18 h.
For series [10], the system named is Escherichia coli. Briefly: Bactericidal activity against Escherichia coli BW25113 assessed as prevention visible bacterial growth incubated for 18 hrs. In kind it is functional. The note with it: BW25113, 18 h.
The test system of series [11] is Escherichia coli. Briefly: Bactericidal activity against Escherichia coli BW25113 expressing delta sbmA mutation assessed as prevention visible bacterial growth incubated for 18 hrs. The series is classed as functional. Particulars: BW25113, 18 h.
In series [12] the test system is Escherichia coli. Nature of the series: Bactericidal activity against Escherichia coli ATCC 25922 assessed as prevention visible bacterial growth incubated for 18 hrs. In kind it is functional. The note with it: ATCC 25922, 18 h.
The subject of series [13] is Klebsiella pneumoniae. Nature of the series: Bactericidal activity against Klebsiella pneumoniae 700603 assessed as prevention visible bacterial growth incubated for 18 hrs. In kind it is functional. Particulars: Klebsiella pneumoniae, 700603, 18 h.
The subject of series [14] is Acinetobacter baumannii. Briefly: Bactericidal activity against Acinetobacter baumannii ATCC 19606 assessed as prevention visible bacterial growth incubated for 18 hrs. In kind it is functional. The note with it: ATCC 19606 = CIP 70.34 = JCM 6841, 18 h.
Series [15] concerns Pseudomonas aeruginosa. Briefly: Bactericidal activity against Pseudomonas aeruginosa ATCC 27853 assessed as prevention visible bacterial growth incubated for 18 hrs. The series is classed as functional. The note with it: ATCC 27853, 18 h.
Series [16] concerns Staphylococcus aureus. Briefly: Bactericidal activity against Staphylococcus aureus ATCC 25923 assessed as prevention visible bacterial growth incubated for 18 hrs. In kind it is functional. The note with it: ATCC 25923, 18 h.
Series [17] relates to Escherichia coli. Briefly: Antibacterial activity against Escherichia coli clinical isolates assessed as prevention visible bacterial growth incubated for 18 hrs. The series is classed as functional.
The subject of series [18] is Escherichia coli. Briefly: Antibacterial activity against Escherichia coli isolate EURL-VTEC C07 assessed as prevention visible bacterial growth incubated for 18 hrs. The series is classed as functional. The note with it: isolate EURL-VTEC C07, 18 h.
For series [19], the system named is Escherichia coli. Nature of the series: Ratio of MIC for antibacterial activity against Escherichia coli BW25113 expressing delta sbmA mutation to MIC for antibacterial activity against wild type Escherichia coli BW25113. In kind it is functional.
The subject of series [20] is Escherichia coli. Briefly: Ratio of MBC for antibacterial activity against Escherichia coli BW25113 expressing delta sbmA mutation to MBC for antibacterial activity against wild type Escherichia coli BW25113. In kind it is functional.
Series [21] deals with Escherichia coli. Briefly: Induction of membrane permeabilization in Escherichia coli BW25113 at 8 to 16 uM incubated for 30 mins by propidium iodide uptake based flow cytometry. In kind it is functional, organism-based. For orientation: In flow cytometry, cells or beads pass a laser one at a time.
The test system of series [22] is Escherichia coli. Nature of the series: Induction of membrane permeabilization in Escherichia coli BW25113 at 4 uM incubated for 30 mins by propidium iodide uptake based flow cytometry. In kind it is functional, organism-based.
In series [23] the test system is Escherichia coli. Nature of the series: Induction of membrane permeabilization in Escherichia coli BW25113 at 8 to 16 uM incubated for 30 mins by ONPG/beta-galactosidase assay. The series is classed as functional, organism-based.
The subject of series [24] is Escherichia coli. Briefly: Induction of membrane permeabilization in Escherichia coli BW25113 at 4 uM incubated for 30 mins by ONPG/beta-galactosidase assay. The series is classed as functional, organism-based.
For series [25], the system named is Escherichia coli. Briefly: Induction of membrane permeabilization in Escherichia coli BW25113 at 16 uM incubated for 30 mins by ONPG/beta-galactosidase assay relative to 1 uM colistin. The series is classed as functional.
For series [26], the system named is Escherichia coli. Briefly: Induction of membrane permeabilization in Escherichia coli BW25113 at 1 to 2 uM incubated for 30 mins by ONPG/beta-galactosidase assay. The series is classed as functional, organism-based.
Series [27] has as its system Escherichia coli. Nature of the series: Inhibition of in-vitro transcription/translation in Escherichia coli lysates at 1 uM incubated for 1 hr by luciferase reporter gene assay relative to control. The series is classed as functional. Background: A reporter such as luciferase makes a cellular process visible.
The test system of series [28] is Escherichia coli. Nature of the series: Induction of membrane permeabilization in Escherichia coli BW25113 at 1 uM incubated for 30 mins by ONPG/beta-galactosidase assay. The series is classed as functional, organism-based.
Series [29] relates to Escherichia coli. Nature of the series: Induction of membrane permeabilization in Escherichia coli BW25113 at 1 to 16 uM incubated for 30 mins by propidium iodide uptake based flow cytometry. The series is classed as functional, organism-based.
For series [30], the system named is Escherichia coli. Briefly: Induction of membrane permeabilization in Escherichia coli BW25113 at 1 to 16 uM incubated for 30 mins by ONPG/beta-galactosidase assay. The series is classed as functional, organism-based.

Active and inactive are the calls of the source.

A word on the MIC99: it is an inhibitory concentration at the 99% level, which refers to growth in some studies and to a panel of isolates in others. The MIC is the least concentration at which growth counts as inhibited. As a reminder, the CC50 is the concentration at which the toxic effect on the cells reaches its halfway point. One may read the MBC as the smallest concentration meeting the test's criterion for killing. With H-WRIRRRWPRLPRPRWR-OH, the MIC99 amounted to 1 µM in series [1]; 2 µM in [2]; 4 µM in series [5]; 2 µM in series [6]; 4 µM in series [7]; 32 µM in series [8]. The MIC99 in [9] was 12 µM; in [17] it was greater than 1 µM; in series [18], 2 µM. Also, in series [3], the MIC was 3 µM. Also, the CC50 at 20 h in series [4] is greater than 64 µM. In addition, the MBC in series [10] is 4 µM; in [11] it was 4 µM; in series [12], 2 µM; in series [13] it was 8 µM; in series [14], 8 µM; in [15], greater than 64 µM. Also, in series [16], the MBC was greater than 64 µM. For the same substance, the Ratio in series [19] and in series [20] was 2 - 4 each time. The result in series [21], in series [22], in [23] and in series [24] was Active. In [25], this substance showed an Activity of 30%. Further, in series [26], the outcome was inactive. Moreover, the inhibition result in [27] was “Active”.
Take COLISTIN: the result in [28] was Active.
On to H-WRIRPRPPRLPRPRPR-OH, for which the MIC99 in series [1] is 1 µM; in series [2], 1 to 2 µM; in series [5], 12 µM; in [6], 16 µM; in [7], 32 µM; in series [8], greater than 64 µM. Further, the figures for the MIC99 in [9] and in series [17] were greater than 64 µM and greater than 1 µM, respectively. The MIC in series [3] is 1 µM. Further, the CC50 at 20 h in series [4] is greater than 64 µM. Moreover, the MBC in series [10] was 1 µM; in [11] it was 32 µM; in series [12], 2 µM; in series [13], 64 µM; in series [14], 64 µM; in series [15] it was greater than 64 µM. For the same substance, the MBC in [16] was greater than 64 µM. Besides, the result in series [29], in series [30] and in series [26] was inactive. Moreover, the inhibition entry in series [27] was “Active”.
With H-WRIRPRPPRLPRWRPR-OH, the MIC99 was 1.5 µM in series [1]; 2 µM in series [2]; 16 µM in [5]; 8 µM in series [6]; 32 µM in series [7]; greater than 64 µM in series [8]. In addition, the MIC99 in series [9] was greater than 64 µM; in [17], greater than 1 µM. The MIC in [3] turned out to be 2 µM. The CC50 at 20 h in [4] was greater than 64 µM. The minimal bactericidal concentration (MBC) in [10] is 4 µM; in [11] it was 32 µM; in [12] it was 2 µM; in series [13], 32 µM; in series [14], 64 µM; in [15] it was greater than 64 µM. The MBC in [16] was greater than 64 µM. Moreover, in [26], the outcome was inactive. Besides, the inhibition entry in series [27] was “Active”.
Turning to H-WRIRRRPPRLPRPRWR-OH, the MIC99 in series [1] was 1 µM; in series [2], 1 µM; in series [5] it was 3 µM; in series [6] it was 4 µM; in [7] it was 32 µM; in series [8], 64 µM. Also, the values for the MIC99 in series [9] and in [17] were 32 µM and greater than 1 µM, respectively. Further, in [3], the MIC turned out to be 6 µM. The CC50 at 20 h in series [4] was greater than 64 µM. Moreover, the MBC in series [10] amounted to 8 µM; in series [11], 4 µM; in series [12], 2 µM; in series [13], 32 µM; in [14] it was 32 µM; in series [15], 64 µM. Further, in series [16], the MBC is greater than 64 µM. Moreover, the Ratio in [19] and in [20] was 2 - 4 in each case. Further, the result in [21] and in series [23] was Active. The same substance yielded an Activity in series [25] of 30%. In [26], the outcome was inactive. In series [27], the inhibition entry is “Active”.
Take H-RRIRPRPPRLPRPRWR-OH: the MIC99 in [1] was 1 µM; in [2], 1 to 4 µM; in series [5], 4 µM; in [6], 2 µM; in series [7], 12 µM; in [8], greater than 64 µM. Moreover, the MIC99 in series [9] was greater than 64 µM; in series [17], greater than 1 µM. In addition, the MIC in series [3] came to 1.5 µM. Moreover, the CC50 at 20 h in series [4] was greater than 64 µM. Besides, the MBC was 8 µM in [10]; 16 µM in series [11]; 2 µM in series [12]; 16 µM in series [13]; 24 µM in [14]; 32 µM in series [15]. Moreover, the MBC in series [16] is greater than 64 µM. Further, the Ratio in series [19] and in series [20] was 2 - 4 throughout. In addition, the outcome in [29], in series [30] and in [26] was inactive. Besides, the inhibition entry in [27] was “Active”.
For the substance H-RRIRPRPPRLPRPRPR-OH, the MIC99 is 1 µM in [1]; 2 to 8 µM in series [2]; 16 µM in [5]; 4 µM in [6]; 32 µM in series [7]; greater than 64 µM in [8]. The results for the MIC99 in series [9] and in series [17] were greater than 64 µM and greater than 1 µM, respectively. Besides, the MIC in [3] was found to be 1 µM. Further, the CC50 at 20 h in series [4] was greater than 64 µM. Besides, the MBC was 4 µM in series [10]; 64 µM in [11]; 2 µM in series [12]; 64 µM in series [13]; greater than 64 µM in series [14]; greater than 64 µM in series [15]. For the same substance, in [16], the MBC is greater than 64 µM. Moreover, the outcome in [26] was inactive.

The values above are taken from ChEMBL document CHEMBL4622980, “Peptide Inhibitors of Bacterial Protein Synthesis with Broad Spectrum and SbmA-Independent Bactericidal Activity against Clinical Pathogens” (J Med Chem, 2020).
